In patent publication US9879041B2, “Saccharide dendritic cluster compounds as inhibitors of BACE-1” (Victoria Link Limited, priority 2012, dated 2018):

Columns and labels:
[1] = test system: Aβ1-40; experiment: Brain slice assay, soluble Aβ1-40 in medium by ELISA; assay type: cell-based, Transgenic TG2576 mice; conditions: TG2576 mouse brain slices; 1, 10 and 100 μg/ml; 96 hours vs. 48 hours
Protocol: Transgenic TG2576 mice expressing the human SWE-mutated amyloid precursor protein are sacrificed by cervical dislocation at 8-10 months of age. The brain is removed and 400 μm coronal sections are obtained using a manual tissue chopper (Leica Microsystems). Slices are washed briefly in HBSS (Hank balanced salt solution, Life Technologies) supplemented with 4.5 mg/ml glucose (Sigma-Aldrich) and 3.75 μg/ml amphotericin B (Sigma-Aldrich) and transferred to a transwell plate (Costar 3396 HTS 24 well transwell plate with 0.4 μm polycarbonate membrane) in 1 ml of 50% MEM (minimal essential medium, Life Technologies) supplemented with 25% heat-inactivated horse serum (Life Technologies), 25% HBSS, 0.5 mM glutamine (Life Technologies), 4.5 mg/ml glucose and 3.75 μg/ml amphotericin B. Slices are incubated 48 hours at 37 C, 5% CO2. […] Soluble Aμ1-40 in the medium is quantified using a SensoLyte™ Anti-Human βeta-Amyloid (1-40) ELISA kit (Anaspec) in accordance with the manufacturer's instructions. […] The color reaction is stopped with 50 μl of Stop Solution and the plate is read at 450 nm using an absorbance plate reader (Thermo Multiskan EX). The amount of Aβ-40 is quantified by reference to a standard curve of Aβ1-40 (supplied in the SensoLyte™ kit). Data are expressed as a percentage of the Aβ1-40 present at 96 hours vs. 48 hours for each condition.

[2] = target: T1, bovine Factor Xa (Bos taurus, UniProt P00743); experiment: Factor Xa anticoagulant assay (antithrombin-III mediated inactivation of Factor Xa); assay type: biochemical; conditions: dose range 0.004 to 50 μg/ml
T1 construct: purchased Thermo Scientific 32521
T1 sequence (P01008 33-464 partner): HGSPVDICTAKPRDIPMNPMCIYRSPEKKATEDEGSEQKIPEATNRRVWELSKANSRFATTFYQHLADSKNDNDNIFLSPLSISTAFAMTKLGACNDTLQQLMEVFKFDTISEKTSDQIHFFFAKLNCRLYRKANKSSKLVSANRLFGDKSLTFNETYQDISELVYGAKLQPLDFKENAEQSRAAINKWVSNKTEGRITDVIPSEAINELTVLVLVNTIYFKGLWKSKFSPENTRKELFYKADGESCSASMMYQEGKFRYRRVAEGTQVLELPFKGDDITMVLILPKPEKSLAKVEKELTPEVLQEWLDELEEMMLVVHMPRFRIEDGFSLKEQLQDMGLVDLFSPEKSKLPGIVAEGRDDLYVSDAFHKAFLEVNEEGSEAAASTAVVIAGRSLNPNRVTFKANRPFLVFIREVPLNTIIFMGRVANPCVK
T1 sequence (P00743 234-492 limits assumed): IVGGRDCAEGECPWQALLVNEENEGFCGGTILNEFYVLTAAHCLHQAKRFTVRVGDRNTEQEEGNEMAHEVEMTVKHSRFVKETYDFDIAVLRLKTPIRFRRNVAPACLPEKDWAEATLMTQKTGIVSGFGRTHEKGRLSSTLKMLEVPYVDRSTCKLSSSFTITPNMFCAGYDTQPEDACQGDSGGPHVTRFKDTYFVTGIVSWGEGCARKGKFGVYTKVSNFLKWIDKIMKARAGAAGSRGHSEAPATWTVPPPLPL
Protocol: The plate is incubated for two minutes at 37° C. […] 19 μl of 2.5 mM chromogenic substrate (American Diagnostica Inc. Spectrozyme FXa Product No 222L) in assay buffer is added to each well and incubated for 2 hours at 37° C., followed by addition of 5 μl of 30% acetic acid to each well. Absorbance at 405 nm is read on a multiplate reader.

[3] = target: T2, recombinant human BACE-1 (Homo sapiens, UniProt P56817); experiment: BACE-1 inhibition by in vitro FRET peptide cleavage assay; assay type: biochemical; conditions: pH 4.5, 1 h, 25° C.
T2 construct: purchased R & D Systems 931-AS
T2 sequence (P56817 46-501): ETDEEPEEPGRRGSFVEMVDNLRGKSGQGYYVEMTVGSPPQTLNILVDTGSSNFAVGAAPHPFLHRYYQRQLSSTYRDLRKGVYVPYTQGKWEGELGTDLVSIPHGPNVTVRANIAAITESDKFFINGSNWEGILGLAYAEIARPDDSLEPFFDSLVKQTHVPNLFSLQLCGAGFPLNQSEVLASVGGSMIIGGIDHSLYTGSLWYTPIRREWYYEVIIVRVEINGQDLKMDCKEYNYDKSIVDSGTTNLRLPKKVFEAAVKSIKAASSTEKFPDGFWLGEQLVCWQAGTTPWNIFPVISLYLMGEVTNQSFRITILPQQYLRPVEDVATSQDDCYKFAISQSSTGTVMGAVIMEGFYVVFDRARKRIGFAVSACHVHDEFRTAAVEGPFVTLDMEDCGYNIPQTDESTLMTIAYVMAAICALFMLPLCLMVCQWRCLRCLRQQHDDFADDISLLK
Protocol: The ability of compounds of the invention to inhibit BACE-1 cleavage of APP is assessed using a fluorescent resonance energy transfer (FRET) peptide cleavage assay employing the FRET peptide HiLyte 488-Glu-Val-Asn-Leu-Asp-Ala-Glu-Phe-Lys(QXL520)-OH (Anaspec, Inc., CA, USA; Cat no. 60604-01). When intact, the amino terminal fluorophore is quenched, but upon enzymatic cleavage the fluorophore is released from quencher and fluoresces (520 nm). Assays are performed in triplicate in 96 well black plates (20 mM sodium acetate, 0.1% Triton-X-100, pH 4.5; 2.2 ng peptide per well and 25 ng/well of recombinant human BACE-1 (R & D Systems Cat no. 931-AS). The appropriate controls for enzyme activity (substrate plus enzyme, and substrate only) are employed and plates are incubated (1 h, 25° C., with activity stopped with 2.5 M sodium acetate). Compounds of the invention are added in the concentration range from 100-0.0001 μg/mL. Fluorescence 480ex/520em is measured on a Polarstar plate reader (BMG LabTechnologies, UK) and data are analysed by plotting log10 concentration of compound against percent inhibition and fitting a logistic dose response sigmoidal curve using OriginPro 8 (OriginLabs, Mass, USA).

SMILES | ability to lower amounts of Aβ1-40 in brain slices [1] | ability to accelerate antithrombin-III mediated inactivation of Factor Xa, as measured by cleavage of a peptide substrate [2] | IC50 [3]
CC(=O)NC1C(OC2C(C(=O)O)OC(OCCCCCCNC(=O)CCCCCCCNC(=O)CCOCC(COCCC(=O)NCCCCCCCC(=O)NCCCCCCOC3OC(C(=O)O)C(OC4OC(COS(=O)(=O)O)C(O)C(O)C4NC(C)=O)C(O)C3O)(COCCC(=O)NCCCCCCCC(=O)NCCCCCCOC3OC(C(=O)O)C(OC4OC(COS(=O)(=O)O)C(O)C(O)C4NC(C)=O)C(O)C3O)COCCC(=O)NCCCCCCCC(=O)NCCCCCCOC3OC(C(=O)O)C(OC4OC(COS(=O)(=O)O)C(O)C(O)C4NC(C)=O)C(O)C3O)C(O)C2O)OC(COS(=O)(=O)O)C(O)C1O (stereo not shown) [Compound 18a] | demonstrate the ability to lower amounts of Aβ1-40 |  | 
CC(=O)NC1C(OC2C(C(=O)O)OC(OCCCCCCNC(=O)CCCCCCCNC(=O)CCOCC(COCCC(=O)NCCCCCCCC(=O)NCCCCCCOC3OC(C(=O)O)C(OC4OC(COS(=O)(=O)O)C(O)C(O)C4NC(C)=O)C(O)C3O)(COCCC(=O)NCCCCCCCC(=O)NCCCCCCOC3OC(C(=O)O)C(OC4OC(COS(=O)(=O)O)C(O)C(O)C4NC(C)=O)C(O)C3O)COCCC(=O)NCCCCCCCC(=O)NCCCCCCOC3OC(C(=O)O)C(OC4OC(COS(=O)(=O)O)C(O)C(O)C4NC(C)=O)C(O)C3O)C(O)C2O)OC(COS(=O)(=O)O)C(O)C1O (stereo not shown) [Compound 18b] |  | do not display any measurable ability | ~3100 nM
CC(=O)NC1C(OC2C(C(=O)O)OC(OC3C(COS(=O)(=O)O)OC(OC4C(C(=O)O)OC(OCCCCCCNC(=O)CCCCCCCNC(=O)CCOCC(COCCC(=O)NCCCCCCCC(=O)NCCCCCCOC5OC(C(=O)O)C(OC6OC(COS(=O)(=O)O)C(OC7OC(C(=O)O)C(OC8OC(COS(=O)(=O)O)C(O)C(O)C8NC(C)=O)C(O)C7O)C(O)C6NC(C)=O)C(O)C5O)(COCCC(=O)NCCCCCCCC(=O)NCCCCCCOC5OC(C(=O)O)C(OC6OC(COS(=O)(=O)O)C(OC7OC(C(=O)O)C(OC8OC(COS(=O)(=O)O)C(O)C(O)C8NC(C)=O)C(O)C7O)C(O)C6NC(C)=O)C(O)C5O)COCCC(=O)NCCCCCCCC(=O)NCCCCCCOC5OC(C(=O)O)C(OC6OC(COS(=O)(=O)O)C(OC7OC(C(=O)O)C(OC8OC(COS(=O)(=O)O)C(O)C(O)C8NC(C)=O)C(O)C7O)C(O)C6NC(C)=O)C(O)C5O)C(O)C4O)C(NC(C)=O)C3O)C(O)C2O)OC(COS(=O)(=O)O)C(O)C1O (stereo not shown) [Compound 18c] |  | do not display any measurable ability | ~39.5 nM
CC(=O)NC1C(OCCCCCCNC(=O)CCOCC(COCCC(=O)NCCCCCCOC2OC(COS(=O)(=O)O)C(O)C(O)C2NC(C)=O)(COCCC(=O)NCCCCCCOC2OC(COS(=O)(=O)O)C(O)C(O)C2NC(C)=O)COCCC(=O)NCCCCCCOC2OC(COS(=O)(=O)O)C(O)C(O)C2NC(C)=O)OC(COS(=O)(=O)O)C(O)C1O (stereo not shown) [Compound 18e] |  | do not display any measurable ability | ~25600 nM
CC(=O)NC1C(OCCCCCCNC(=O)CCCCCCCNC(=O)CCOCC(COCCC(=O)NCCCCCCCC(=O)NCCCCCCOC2OC(COS(=O)(=O)O)C(O)C(O)C2NC(C)=O)(COCCC(=O)NCCCCCCCC(=O)NCCCCCCOC2OC(COS(=O)(=O)O)C(O)C(O)C2NC(C)=O)COCCC(=O)NCCCCCCCC(=O)NCCCCCCOC2OC(COS(=O)(=O)O)C(O)C(O)C2NC(C)=O)OC(COS(=O)(=O)O)C(O)C1O (stereo not shown) [Compound 18h] |  | do not display any measurable ability | 794 to 1980 nM
CC(=O)NC1C(OC2C(C(=O)O)OC(OCCCCCCNC(=O)CCCCCCCNC(=O)CCOCC(COCCC(=O)NCCCCCCCC(=O)NCCCCCCOC3OC(C(=O)O)C(OC4OC(COS(=O)(=O)O)C(O)C(O)C4NC(C)=O)C(O)C3OS(=O)(=O)O)(COCCC(=O)NCCCCCCCC(=O)NCCCCCCOC3OC(C(=O)O)C(OC4OC(COS(=O)(=O)O)C(O)C(O)C4NC(C)=O)C(O)C3OS(=O)(=O)O)COCCC(=O)NCCCCCCCC(=O)NCCCCCCOC3OC(C(=O)O)C(OC4OC(COS(=O)(=O)O)C(O)C(O)C4NC(C)=O)C(O)C3OS(=O)(=O)O)C(OS(=O)(=O)O)C2O)OC(COS(=O)(=O)O)C(O)C1O (stereo not shown) [Compound 20a] |  |  | ~14.1 nM
CC(=O)NC1C(OC2C(C(=O)O)OC(OCCCCCCNC(=O)CCCCCCCNC(=O)CCOCC(COCCC(=O)NCCCCCCCC(=O)NCCCCCCOC3OC(C(=O)O)C(OC4OC(COS(=O)(=O)O)C(O)C(O)C4NC(C)=O)C(O)C3OS(=O)(=O)O)(COCCC(=O)NCCCCCCCC(=O)NCCCCCCOC3OC(C(=O)O)C(OC4OC(COS(=O)(=O)O)C(O)C(O)C4NC(C)=O)C(O)C3OS(=O)(=O)O)COCCC(=O)NCCCCCCCC(=O)NCCCCCCOC3OC(C(=O)O)C(OC4OC(COS(=O)(=O)O)C(O)C(O)C4NC(C)=O)C(O)C3OS(=O)(=O)O)C(OS(=O)(=O)O)C2O)OC(COS(=O)(=O)O)C(O)C1O (stereo not shown) [Compound 20b] |  | do not display any measurable ability | ~56.4 nM
CC(=O)NC1C(OC2C(C(=O)O)OC(OC3C(COS(=O)(=O)O)OC(OC4C(C(=O)O)OC(OCCCCCCNC(=O)CCCCCCCNC(=O)CCOCC(COCCC(=O)NCCCCCCCC(=O)NCCCCCCOC5OC(C(=O)O)C(OC6OC(COS(=O)(=O)O)C(OC7OC(C(=O)O)C(OC8OC(COS(=O)(=O)O)C(O)C(O)C8NC(C)=O)C(O)C7OS(=O)(=O)O)C(O)C6NC(C)=O)C(O)C5OS(=O)(=O)O)(COCCC(=O)NCCCCCCCC(=O)NCCCCCCOC5OC(C(=O)O)C(OC6OC(COS(=O)(=O)O)C(OC7OC(C(=O)O)C(OC8OC(COS(=O)(=O)O)C(O)C(O)C8NC(C)=O)C(O)C7OS(=O)(=O)O)C(O)C6NC(C)=O)C(O)C5OS(=O)(=O)O)COCCC(=O)NCCCCCCCC(=O)NCCCCCCOC5OC(C(=O)O)C(OC6OC(COS(=O)(=O)O)C(OC7OC(C(=O)O)C(OC8OC(COS(=O)(=O)O)C(O)C(O)C8NC(C)=O)C(O)C7OS(=O)(=O)O)C(O)C6NC(C)=O)C(O)C5OS(=O)(=O)O)C(OS(=O)(=O)O)C4O)C(NC(C)=O)C3O)C(OS(=O)(=O)O)C2O)OC(COS(=O)(=O)O)C(O)C1O (stereo not shown) [Compound 20c] |  | do not display any measurable ability | ~1.75 nM
O=C(CCCCCCCNC(=O)CCOCC(COCCC(=O)NCCCCCCCC(=O)NCCCCCCOC1OC(C(=O)O)C(OC2OC(COS(=O)(=O)O)C(OC3OC(C(=O)O)C(OC4OC(COS(=O)(=O)O)C(O)C(O)C4NS(=O)(=O)O)C(O)C3OS(=O)(=O)O)C(O)C2NS(=O)(=O)O)C(O)C1OS(=O)(=O)O)(COCCC(=O)NCCCCCCCC(=O)NCCCCCCOC1OC(C(=O)O)C(OC2OC(COS(=O)(=O)O)C(OC3OC(C(=O)O)C(OC4OC(COS(=O)(=O)O)C(O)C(O)C4NS(=O)(=O)O)C(O)C3OS(=O)(=O)O)C(O)C2NS(=O)(=O)O)C(O)C1OS(=O)(=O)O)COCCC(=O)NCCCCCCCC(=O)NCCCCCCOC1OC(C(=O)O)C(OC2OC(COS(=O)(=O)O)C(OC3OC(C(=O)O)C(OC4OC(COS(=O)(=O)O)C(O)C(O)C4NS(=O)(=O)O)C(O)C3OS(=O)(=O)O)C(O)C2NS(=O)(=O)O)C(O)C1OS(=O)(=O)O)NCCCCCCOC1OC(C(=O)O)C(OC2OC(COS(=O)(=O)O)C(OC3OC(C(=O)O)C(OC4OC(COS(=O)(=O)O)C(O)C(O)C4NS(=O)(=O)O)C(O)C3OS(=O)(=O)O)C(O)C2NS(=O)(=O)O)C(O)C1OS(=O)(=O)O (stereo not shown) [Compound 22a] |  | do not display any measurable ability | ~1.67 nM
